Measurements: PubChem BioAssay (NCI)
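The compound was tested at five concentrations on cells cultured in 96-well plates, with a 48-hour exposure period. TGI marks complete inhibition of growth.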

What was measured:
Experiment in all cases: NCI tumour cell line growth inhibition, 48 h
[1] = test system: MALME-3M melanoma
[2] = test system: SW-620 colon
[3] = test system: MDA-MB-231 breast
[4] = test system: SNB-19 CNS
[5] = test system: UACC-62 melanoma
[6] = test system: SR leukemia
[7] = test system: HCT-15 colon
[8] = test system: LOX IMVI melanoma
[9] = test system: HCC-2998 colon
[10] = test system: HOP-62 NSCLC
[11] = test system: NCI-H23 lung
[12] = test system: NCI-H460 lung
[13] = test system: UO-31 renal
[14] = test system: SK-MEL-5 melanoma
[15] = test system: ACHN renal
[16] = test system: KM12 colon
[17] = test system: PC-3 prostate
[18] = test system: MDA-N
[19] = test system: UACC-257 melanoma
[20] = test system: 786-0 renal
[21] = test system: SF-268 CNS
[22] = test system: OVCAR-8 ovarian
[23] = test system: HT29 colon
[24] = test system: OVCAR-5 ovarian
[25] = test system: CAKI-1 renal
[26] = test system: U251 CNS
[27] = test system: COLO 205 colon
[28] = test system: SK-MEL-28 melanoma
[29] = test system: A498 renal
[30] = test system: OVCAR-4 ovarian
[31] = test system: SNB-75 CNS
[32] = test system: A549 NSCLC
[33] = test system: SK-OV-3 ovarian
[34] = test system: MOLT-4 leukemia
[35] = test system: RXF 393 renal
[36] = test system: DU-145 prostate
[37] = test system: M14 melanoma
[38] = test system: NCI-H522 lung
[39] = test system: EKVX NSCLC
[40] = test system: HS 578T breast
[41] = test system: MDA-MB-435
[42] = test system: NCI-H226 lung
[43] = test system: NCI/ADR-RES ovarian
[44] = test system: K-562 leukemia
[45] = test system: TK-10 renal
[46] = test system: SN12C renal
[47] = test system: HL-60(TB) leukemia
[48] = test system: CCRF-CEM leukemia
[49] = test system: SF-539 CNS
[50] = test system: SF-295 CNS
[51] = test system: IGROV1 ovarian
[52] = test system: HCT-116 colon
[53] = test system: OVCAR-3 ovarian
[54] = test system: BT-549 breast
[55] = test system: T-47D breast
[56] = test system: RPMI-8226 leukemia
[57] = test system: SK-MEL-2 melanoma
[58] = test system: MCF7 breast
[59] = test system: HOP-92 NSCLC

## COc1cc2c(cc1OC)C(=O)C1(C2)[C@H](c2ccccc2)C2C(=O)c3cc(OC)c(OC)cc3C2[C@H]1c1ccccc1 (stereo not given in full)
[1]
  TGI: > 100 µM
[2]
  TGI: > 100 µM
[3]
  TGI: > 100 µM
[4]
  TGI: > 100 µM
[5]
  TGI: > 100 µM
[6]
  TGI: > 100 µM
[7]
  TGI: > 100 µM
[8]
  TGI: > 100 µM
[9]
  TGI: > 100 µM
[10]
  TGI: > 100 µM
[11]
  TGI: > 100 µM
[12]
  TGI: > 100 µM
[13]
  TGI: > 100 µM
[14]
  TGI: > 100 µM
[15]
  TGI: > 100 µM
[16]
  TGI: > 100 µM
[17]
  TGI: > 100 µM
[18]
  TGI: > 100 µM
[19]
  TGI: > 100 µM
[20]
  TGI: > 100 µM
[21]
  TGI: > 100 µM
[22]
  TGI: > 100 µM
[23]
  TGI: > 100 µM
[24]
  TGI: > 100 µM
[25]
  TGI: 0.648 µM
[26]
  TGI: > 100 µM
[27]
  TGI: > 100 µM
[28]
  TGI: > 100 µM
[29]
  TGI: > 100 µM
[30]
  TGI: > 100 µM
[31]
  TGI: > 100 µM
[32]
  TGI: > 100 µM
[33]
  TGI: > 100 µM
[34]
  TGI: > 100 µM
[35]
  TGI: > 100 µM
[36]
  TGI: > 100 µM
[37]
  TGI: > 100 µM
[38]
  TGI: > 100 µM
[39]
  TGI: > 100 µM
[40]
  TGI: > 100 µM
[41]
  TGI: > 100 µM
[42]
  TGI: > 100 µM
[43]
  TGI: > 100 µM
[44]
  TGI: > 100 µM
[45]
  TGI: > 100 µM
[46]
  TGI: > 100 µM
[47]
  TGI: > 100 µM
[48]
  TGI: > 100 µM
[49]
  TGI: > 100 µM
[50]
  TGI: > 100 µM
[51]
  TGI: > 100 µM
[52]
  TGI: > 100 µM
[53]
  TGI: > 100 µM
[54]
  TGI: > 100 µM
[55]
  TGI: > 100 µM
[56]
  TGI: > 100 µM

## O=C(O)CCC(N=NNc1ccc(-c2nc3ccccc3[nH]2)cc1)C(=O)O (stereo not given)
[2]
  TGI: > 100 µM
[3]
  TGI: > 100 µM
[4]
  TGI: > 100 µM
[6]
  TGI: > 100 µM
[7]
  TGI: > 100 µM
[8]
  TGI: > 100 µM
[10]
  TGI: > 100 µM
[11]
  TGI: > 100 µM
[12]
  TGI: > 100 µM
[13]
  TGI: > 100 µM
[14]
  TGI: > 100 µM
[15]
  TGI: > 100 µM
[16]
  TGI: > 100 µM
[17]
  TGI: > 100 µM
[18]
  TGI: > 100 µM
[19]
  TGI: > 100 µM
[57]
  TGI: > 100 µM
[20]
  TGI: > 100 µM
[22]
  TGI: > 100 µM
[23]
  TGI: > 100 µM
[24]
  TGI: > 100 µM
[25]
  TGI: > 100 µM
[26]
  TGI: > 100 µM
[27]
  TGI: > 100 µM
[28]
  TGI: > 100 µM
[29]
  TGI: > 100 µM
[58]
  TGI: > 100 µM
[30]
  TGI: > 100 µM
[31]
  TGI: > 100 µM
[32]
  TGI: > 100 µM
[33]
  TGI: > 100 µM
[34]
  TGI: > 100 µM
[59]
  TGI: > 100 µM
[35]
  TGI: > 100 µM
[36]
  TGI: > 100 µM
[37]
  TGI: > 100 µM
[38]
  TGI: > 100 µM
[39]
  TGI: > 100 µM
[40]
  TGI: > 100 µM
[41]
  TGI: > 100 µM
[42]
  TGI: > 100 µM
[43]
  TGI: > 100 µM
[44]
  TGI: > 100 µM
[45]
  TGI: > 100 µM
[46]
  TGI: > 100 µM
[47]
  TGI: > 100 µM
[48]
  TGI: > 100 µM
[49]
  TGI: > 100 µM
[50]
  TGI: 73.2 µM
[51]
  TGI: > 100 µM
[52]
  TGI: > 100 µM
[53]
  TGI: > 100 µM
[54]
  TGI: 70.6 µM
[55]
  TGI: > 100 µM
[56]
  TGI: > 100 µM

## O=C1c2ccccc2C(=O)c2c(Nc3cc4c5c(ccc6c7ccc8c9c(cc(Nc%10cccc%11c%10C(=O)c%10ccccc%10C%11=O)c(c3c56)c97)-c3ccccc3C8=O)C(=O)c3ccccc3-4)cccc21
[1]
  TGI: > 100 µM
[2]
  TGI: > 100 µM
[3]
  TGI: > 100 µM
[4]
  TGI: > 100 µM
[5]
  TGI: > 100 µM
[6]
  TGI: > 100 µM
[7]
  TGI: > 100 µM
[8]
  TGI: > 100 µM
[10]
  TGI: 44.6 µM
[11]
  TGI: > 100 µM
[13]
  TGI: > 100 µM
[14]
  TGI: > 100 µM
[15]
  TGI: > 100 µM
[16]
  TGI: > 100 µM
[17]
  TGI: > 100 µM
[18]
  TGI: > 100 µM
[19]
  TGI: > 100 µM
[57]
  TGI: > 100 µM
[20]
  TGI: > 100 µM
[21]
  TGI: 75.2 µM
[22]
  TGI: > 100 µM
[23]
  TGI: > 100 µM
[24]
  TGI: > 100 µM
[25]
  TGI: > 100 µM
[26]
  TGI: 55 µM
[27]
  TGI: > 100 µM
[28]
  TGI: > 100 µM
[29]
  TGI: 65.1 µM
[58]
  TGI: > 100 µM
[30]
  TGI: > 100 µM
[31]
  TGI: 41.5 µM
[32]
  TGI: > 100 µM
[33]
  TGI: 51.1 µM
[34]
  TGI: > 100 µM
[59]
  TGI: > 100 µM
[35]
  TGI: > 100 µM
[36]
  TGI: > 100 µM
[37]
  TGI: > 100 µM
[38]
  TGI: > 100 µM
[39]
  TGI: > 100 µM
[40]
  TGI: 61.1 µM
[41]
  TGI: > 100 µM
[42]
  TGI: > 100 µM
[43]
  TGI: > 100 µM
[44]
  TGI: > 100 µM
[45]
  TGI: 96.1 µM
[46]
  TGI: > 100 µM
[50]
  TGI: > 100 µM
[51]
  TGI: > 100 µM
[52]
  TGI: > 100 µM
[53]
  TGI: > 100 µM
[54]
  TGI: > 100 µM
[55]
  TGI: > 100 µM
[56]
  TGI: > 100 µM

## COC(=O)C(COC(=O)/C=C/c1ccc(OC(C)=O)c(OC(C)=O)c1)NC(=O)/C=C/c1ccc(OC(C)=O)c(OC(C)=O)c1 (stereo not given)
[1]
  TGI: 32 µM
[2]
  TGI: > 100 µM
[3]
  TGI: 40.1 µM
[4]
  TGI: > 100 µM
[5]
  TGI: 35.1 µM
[6]
  TGI: > 100 µM
[7]
  TGI: > 100 µM
[8]
  TGI: 53.8 µM
[9]
  TGI: 47.3 µM
[10]
  TGI: 80.4 µM
[11]
  TGI: 73.4 µM
[12]
  TGI: 48.1 µM
[14]
  TGI: 29.7 µM
[15]
  TGI: 80.8 µM
[16]
  TGI: 38.8 µM
[17]
  TGI: 32.6 µM
[18]
  TGI: 71.7 µM
[19]
  TGI: > 100 µM
[57]
  TGI: 36.3 µM
[20]
  TGI: 47.2 µM
[22]
  TGI: > 100 µM
[23]
  TGI: 48 µM
[24]
  TGI: > 100 µM
[25]
  TGI: 59.4 µM
[26]
  TGI: > 100 µM
[27]
  TGI: 43.4 µM
[28]
  TGI: 81.7 µM
[29]
  TGI: > 100 µM
[58]
  TGI: > 100 µM
[30]
  TGI: 62.8 µM
[31]
  TGI: > 100 µM
[32]
  TGI: > 100 µM
[33]
  TGI: > 100 µM
[34]
  TGI: > 100 µM
[59]
  TGI: > 100 µM
[35]
  TGI: > 100 µM
[36]
  TGI: 45.2 µM
[37]
  TGI: 39.5 µM
[38]
  TGI: 37.8 µM
[39]
  TGI: > 100 µM
[40]
  TGI: > 100 µM
[41]
  TGI: > 100 µM
[42]
  TGI: > 100 µM
[43]
  TGI: > 100 µM
[44]
  TGI: > 100 µM
[46]
  TGI: 45.4 µM
[47]
  TGI: > 100 µM
[48]
  TGI: > 100 µM
[49]
  TGI: > 100 µM
[51]
  TGI: > 100 µM
[52]
  TGI: 42.6 µM
[53]
  TGI: 33.7 µM
[54]
  TGI: > 100 µM
[55]
  TGI: 38.8 µM
[56]
  TGI: > 100 µM
